{"source": "patent US6962909B2", "about": "“Treatment of neovascularization disorders with squalimine” (Genaera Corporation, priority 1995, dated 2005)", "key": {"[1]": {"assay": "Mouse IV PK study", "conditions": "in vivo, i.v., HPLC, read-out: Half-life of clearance from the blood stream", "experimental": "To assess clearance, a mouse IV PK study was performed for compound 319 and squalamine. The compound was administered i.v. and blood samples were taken every 10 minutes. The concentration of the administered steroid was determined by HPLC analysis."}, "[2]": {"tested_on": "chorioallantoic membrane capillaries", "assay": "Chorioallantoic membrane (CAM) model of capillary growth", "assay_type": "in vivo, chick", "conditions": "for Percentage positive, Assay 1 / Percentage positive, Assay 2 / Percentage positive, Mean: 3-day embryo", "from_the_text": "The growing capillaries within the chorioallantoic membrane model (CAM model) have been used as a system in which to evaluate the effect of agents on their potential to inhibit new vessel growth. Neovascularization occurs most aggressively over the first week of embryonic development. Thereafter capillary growth is characterized by principally “elongation” rather than “de novo” formation. In the standard assay, agents are applied locally to a region of the embryo over which neovascularization will occur. Agents are assessed by their ability to inhibit this process, as evaluated by visual examination about 7 days after application. […] The assay utilized is described in detail in Auerbach et al., Pharm. Ther. 51, 1991, 1-11."}, "[3]": {"tested_on": "human epithelial cell line MCF 10A", "assay": "Cell growth with membrane-active agents (absorbance at 600 nm)", "assay_type": "cell-based", "conditions": "10 μg/ml", "experimental": "(§1) Cell growth was measured by absorbance at 600 nm."}, "[4]": {"tested_on": "bovine pulmonary endothelial cells", "assay": "Cell growth with membrane-active agents (absorbance at 600 nm)", "assay_type": "cell-based", "conditions": "1 μg/ml", "experimental": "as §1"}, "[5]": {"tested_on": "human foreskin fibroblasts", "assay": "Cell growth with membrane-active agents (absorbance at 600 nm)", "assay_type": "cell-based", "conditions": "10 μg/ml", "experimental": "as §1"}, "[6]": {"tested_on": "human umbilical venous endothelial cells", "assay": "LPS/TNF-α-induced neutrophil adherence to endothelial cells", "assay_type": "cell-based", "conditions": "squalamine 10 μg, 1.0 μg or 0.1 μg; three subjects", "experimental": "To determine if squalamine inhibited this particular endothelial cell function, standard adhesion assays were performed as outlined in Gamble et al., J. Imm. Methods 109, 1988, 175-184. […] In these experiments, approximately 2×10^5 human umbilical venous cells (passage 2-6) were plated per well. The cells were grown in serum-free media overnight. For induction, either TNF-α (40 ng/ml) was added to endothelial cells for 6 hours prior to adding neutrophils or LPS (100 ng/ml) was added for 4-6 hours. […] After activation of the endothelial cells, approximately 50×10^6 neutrophils were added per well. The plates were gently rocked for 30 minutes at room temperature, followed by removal of the media and washing in serum-free media three times and then photographing of each well. Experiments to test the effects of squalamine were performed by adding squalamine at 10 μg, 1.0 μg, or 0.1 μg at the time of adding LPS or TNF-α. A second repeat dose of squalamine was added at the time of adding neutrophils. A monoclonal Ab to ICAM-1 was a positive control."}, "[7]": {"assay": "Growth and weight gain in normal growing mice", "assay_type": "in vivo", "conditions": "C57B mice", "experimental": "Animals were dosed QTD (i.p.) starting on Day 1. […] Animals receiving 5 mg/kg QTD experienced about a 50% reduction in growth, compared to untreated controls, while animals receiving 1 mg/kg QTD were affected by about 10%. […] They appeared very much like hypophysectamized animals might appear."}, "[8]": {"tested_on": "heart of a juvenile Xenopus laevis frog", "assay": "Isolated frog heart, persistence of beating ex vivo", "conditions": "10 μg/ml; Krebs-Ringer buffer with adrenaline 50 μg/ml; without compound about one hour", "experimental": "To determine if compound 1436 has such utility, the following experiment was performed. The heart of a juvenile Xenopus laevis frog was dissected from the living animal. The heart was placed into a Petri dish containing Krebs-Ringer buffer with adrenaline 50 μg/ml, and examined with the naked eye. At room temperature, the heart continued beating in a coordinated fashion (atrial beat followed by ventricular beat) for about one hour. In the presence of 10 μg/ml of compound 1436, spontaneous beating persisted up to 24 hours."}, "[9]": {"tested_on": "HIV clinical isolate", "assay": "HIV replication in PHA-stimulated lymphocytes (P-24 antigen Elisa)", "assay_type": "cell-based", "set-up": "P-24 Elisa: unit not given here", "conditions": "for P-24 Elisa: 7 days", "experimental": "(§2) PHA-stimulated lymphocytes were inoculated with a clinical isolate of HIV at a multiplicity of infection of […]. Fresh lymphocytes were obtained and stimulated with PHA and IL-2. After 3 days, 1000 TCID of virus-(HIV clinical isolate) were applied for 1 hour and there was a M.O.I. of 1:10. The cells were washed and in a dose response fashion, and drug in media was applied. After 3 days, the supernatant was exchanged with ½ volume of fresh media and ½ the volume of fresh drug. After 7 days, detergent was added, and HIV P-24 Antigen was determined by Elisa. Viability of the lymphocytes was evaluated along with appearance of the viral gene product p24."}, "[10]": {"tested_on": "PHA-stimulated lymphocytes", "assay": "Viability of lymphocytes in the HIV replication test", "assay_type": "cell-based", "experimental": "as §2"}, "[11]": {"tested_on": "L1210 lymphoblastic leukemia cells", "assay": "Mouse model of L1210 leukemia", "protocol": "C57B mice were inoculated with L1210 lymphoblastic leukemia cells at an inoculum that causes leukemia in 100% of animals. Mice received compound 1436 at 1, 5, 10 mg/kg every 3 days intraperitoneally.\nOf particular interest is the hematological profile determined during the course of treatment. Animals were treated with cisplatin and compound 1436."}, "[12]": {"tested_on": "Human coronary artery smooth muscle cells", "assay": "In vitro growth of coronary artery smooth muscle", "assay_type": "cell-based", "from_the_text": "As set forth in Table 7 below, all malignant tumors evaluated in tissue culture, endothelial cells and vascular smooth muscle cells were sensitive to inhibition. Thus, compound 1436 has application in the control of growth factor dependent proliferation of many types of tissue.\nAminosterols of the invention may also have utility in inhibiting the growth factor mediated proliferation of smooth muscle within the artery. Following coronary angioplasty, reocclusion commonly occurs, secondary to reparative proliferation of the vascular smooth muscle within the wall of the surgically manipulated blood vessel. This process generally takes place over the course of 7-10 days. To evaluate whether an agent could prevent the growth factor mediated proliferation of smooth muscle within the artery, compound 1436 was evaluated in vitro for its effect on the proliferation of human coronary artery smooth muscle. Results for compound 1436 are shown in FIG. 13, and those for squalamine are shown in FIG. 14, with FIG. 15 being a composite logarithmic plot."}, "[13]": {"conditions": "20 μg applied, some vascular irritation noted"}, "[14]": {"conditions": "40 μg applied, some vascular irritation noted"}, "[15]": {"conditions": "mice with 5 × 10^5 L1210 cells ip, cisplatin 8 mg/kg ip, compound 1436 10 mg/kg ip q4d"}}, "note": "Marks after values point to notes of the source that are not given here."}
{"compound": "CC(CC[C@@H](OS(=O)(=O)O)C(C)C)[C@H]1CCC2C3C(CC[C@@]21C)[C@@]1(C)CC[C@H](NCCCNCCCCN)C[C@@H]1C[C@H]3O", "note": "(stereo partly shown) [squalamine]", "values": [{"measurement": "half-life", "setting": "[1]", "result": "~35", "unit": "min"}, {"measurement": "Percentage positive, Assay 1", "setting": "[2]; 0.65 μg applied", "result": 28, "unit": "%"}, {"measurement": "Percentage positive, Assay 1", "setting": "[2]; 1.25 μg applied", "result": 18, "unit": "%"}, {"measurement": "Percentage positive, Assay 2", "setting": "[2]; 1.25 μg applied", "result": 18, "unit": "%"}, {"measurement": "Percentage positive, Mean", "setting": "[2]; 1.25 μg applied", "result": 18, "unit": "%"}, {"measurement": "Percentage positive, Assay 1", "setting": "[2]; 2.5 μg applied", "result": 35, "unit": "%"}, {"measurement": "Percentage positive, Assay 2", "setting": "[2]; 2.5 μg applied", "result": 18, "unit": "%"}, {"measurement": "Percentage positive, Mean", "setting": "[2]; 2.5 μg applied", "result": 27, "unit": "%"}, {"measurement": "Percentage positive, Assay 1", "setting": "[2]; 5.0 μg applied", "result": 91, "unit": "%"}, {"measurement": "Percentage positive, Assay 2", "setting": "[2]; 5.0 μg applied", "result": 57, "unit": "%"}, {"measurement": "Percentage positive, Mean", "setting": "[2]; 5.0 μg applied", "result": 74, "unit": "%"}, {"measurement": "Percentage positive, Mean", "setting": "[2]; 20 μg applied", "result": 55, "unit": "%"}, {"measurement": "Percentage positive, Assay 1", "setting": "[2]; [13]", "result": "52* %"}, {"measurement": "Percentage positive, Assay 2", "setting": "[2]; [13]", "result": "58* %"}, {"measurement": "Percentage positive, Mean", "setting": "[2]; 40 μg applied", "result": 32, "unit": "%"}, {"measurement": "Percentage positive, Assay 1", "setting": "[2]; [14]", "result": "50* %"}, {"measurement": "Percentage positive, Assay 2", "setting": "[2]; [14]", "result": "13* %"}, {"measurement": "Percentage positive", "setting": "[2]; 13-day embryo, 5.0 μg applied", "result": "0/26"}, {"measurement": "Effect on cell growth", "setting": "[3]", "result": "no effect on the growth"}, {"measurement": "Effect on cell growth", "setting": "[4]", "result": "inhibited the growth"}, {"measurement": "Effect on cell growth", "setting": "[5]", "result": "no effect on the growth"}, {"measurement": "Inhibition of neutrophil adherence", "setting": "[6]", "result": "no inhibition"}]}
{"compound": "CC(CC[C@@H](OS(=O)(=O)O)C(C)C)[C@H]1CCC2C3C(CC[C@@]21C)[C@@]1(C)CC[C@H](NCCCNCCCCNCCCN)C[C@@H]1C[C@H]3O", "note": "(stereo partly shown) [Compound 1436]", "values": [{"measurement": "Reduction in growth compared to untreated controls", "setting": "[7]; 1 mg/kg QTD i.p.", "result": "about 10%"}, {"measurement": "Reduction in growth compared to untreated controls", "setting": "[7]; 5 mg/kg QTD i.p.", "result": "~50", "unit": "%"}, {"measurement": "Suppression of growth of mice", "setting": "[7]; 10 mg/kg QTD i.p., after 6 doses, about 1 month", "result": "growth was almost completely inhibited"}, {"measurement": "Persistence of spontaneous beating", "setting": "[8]", "result": "up to 24 hours"}, {"measurement": "P-24 Elisa", "setting": "[9]; Conc. 0.5 μM", "result": 40561}, {"measurement": "P-24 Elisa", "setting": "[9]; Conc. 1 μM", "result": 7464}, {"measurement": "P-24 Elisa", "setting": "[9]; Conc. 5 μM", "result": 3426}, {"measurement": "P-24 Elisa", "setting": "[9]; Conc. 10 μM", "result": 421}, {"measurement": "P-24 Elisa", "setting": "[9]; Conc. 20 μM", "result": 9}, {"measurement": "inhibition at 10 µg/mL", "setting": "[9]; Human immunodeficiency virus 1, Lymphocyte, 10 μg/ml, read-out: Inhibition of antigen synthesis", "result": 97, "unit": "%"}, {"measurement": "Lymphocyte viability retained", "setting": "[10]; 10 μg/ml", "result": 95, "unit": "%"}, {"measurement": "% Viability", "setting": "[10]; Conc. 0.5 μM", "result": 91, "unit": "%"}, {"measurement": "% Viability", "setting": "[10]; Conc. 10 μM", "result": 95, "unit": "%"}, {"measurement": "% Viability", "setting": "[10]; Conc. 20 μM", "result": 90.1, "unit": "%"}, {"measurement": "Survival of leukemic mice", "setting": "[11]; highest dose (10 mg/kg every 3 days intraperitoneally)", "result": "significant prolongation of life"}, {"measurement": "RBC, Early Time", "setting": "[11]; [15]", "result": "4.8 10^6/mm^3"}, {"measurement": "RBC, Late Time", "setting": "[11]; [15]", "result": "8.8 10^6/mm^3"}, {"measurement": "WBC, Early Time", "setting": "[11]; [15]", "result": "3.3 10^3/mm^3"}, {"measurement": "WBC, Late Time", "setting": "[11]; [15]", "result": "3.7 10^3/mm^3"}, {"measurement": "Concentration effective in suppressing growth", "setting": "[12]", "result": "10 to 12", "unit": "µg/mL"}, {"measurement": "Concentration maintaining cells quiescent without loss of viability", "setting": "[12]", "result": "about 11 μg/ml"}]}
